From US9901549B2, “Method for treating vaginal dryness by administering transient receptor potential cation channel subfamily M member 8 (TRPM8) receptor agonists” (UNIVERSIDAD MIGUEL HERNÁNDEZ DE ELCHE, priority 2010, dated 2018)
Like-named read-outs stand apart in the source and are kept apart here.

Experiments:
[1] = target: T1, TRPM8 channels (Homo sapiens, UniProt Q7Z2W7); conditions: FL; data from Behrendt et al., 2004; cited from earlier work
[2] = test system: cold-sensitive nerve terminals of the mouse cornea; test: Nerve terminal impulse (NTI) activity recorded in vitro from cold-sensitive nerve terminals of the cornea
[3] = test system: cold-sensitive nerve terminals of the mouse cornea; test: as above; remark: listed apart in the source
Procedure: To define functionally the thermal sensitivity and encoding capacity of intact cold-sensitive nerve terminals, nerve terminal impulse (NTI) activity from the cornea of wild-type mice eyes was recorded ‘in vitro’ (Brock, J. A., et al., 1998. J. Physiol 512:211-217).
J. Neurosci. 26:12512-12525, Jordt, S. E. et al. 2004. Nature 427:260-265).

[4] = target: T1, TRPM8 channels; conditions: CI; data from Bodding et al., 2007; cited from earlier work
[5] = target: T1, TRPM8 channels; conditions: EP, cited from earlier work
[6] = test system: eyes of TRPM8(−/−) and wild type mice; test: Tear flow (phenol red thread) after topical application to the eye; assay type: in vivo, mouse; conditions: capsaicin 1 μM, AITC 500 μM
Procedure: FIG. 4. Dependence of tear secretion rate on corneal temperature. a. […] Shaded and filled columns represent tearing rate in animals at mean neutral (28.4° C.) or hot temperature (42.5° C.), respectively. The number of measures of successive columns is 35, 11, 23, 9 and 6 observations **p<0.01, ***p<0.001 Mann-Whitney test). b. Increase in tearing rate measured in wild type animals (black columns) and TRPM8−/−(grey columns) elicited by application during 60 s, of a filter paper soaked in capsaicin 1 μM (n=12 and 15) or 500 μM allyl-isothyocyanate. […] Measurements of tear secretion were performed 1 minute after removing the paper with the drug. Statistically significant differences were found with respect to baseline lacrimation, using the Wilcoxon test (*p<0.05, ***p<0.001). c. Mean tearing rate expressed as the wetted length value of the phenol red thread, measured in the eyes of 11 human volunteers at environment temperatures of 18° C., 25° C. and 43° C. that lead to corneal surface temperatures of 32.4±0.4° C.; 34.2±0.1° C. and 36.0±0.2° C. respectively.
Next, it was reasoned that if tear production is associated to the neural activity of cold thermoreceptor fibers, basal tear flow should be reduced in TRPM8(−/−) mice, in which spontaneous activity is absent.

[7] = target: T2, native TRPM8 channel (Homo sapiens, UniProt Q7Z2W7); conditions: CI, cited from earlier work
[8] = target: T2, native TRPM8 channel; conditions: EP, cited from earlier work
[9] = target: T2, native TRPM8 channel; conditions: read-out: IC50 menthol; SF; 20 μM menthol at 22° C.; Ortar et al. 2010; cited from earlier work
[10] = target: T2, native TRPM8 channel; conditions: read-out: IC50 menthol; 100 μM menthol; FL; Behrendt et al. 2004; cited from earlier work
[11] = cold, Malkia et al. 2007, read-out: IC50 cold
[12] = cold, +80 mV, Malkia et al. 2007, read-out: IC50 cold
[13] = read-out: IC50 menthol, 100 μM menthol, −70 mV, Weil 2005

T1 sequence (Q7Z2W7 whole entry): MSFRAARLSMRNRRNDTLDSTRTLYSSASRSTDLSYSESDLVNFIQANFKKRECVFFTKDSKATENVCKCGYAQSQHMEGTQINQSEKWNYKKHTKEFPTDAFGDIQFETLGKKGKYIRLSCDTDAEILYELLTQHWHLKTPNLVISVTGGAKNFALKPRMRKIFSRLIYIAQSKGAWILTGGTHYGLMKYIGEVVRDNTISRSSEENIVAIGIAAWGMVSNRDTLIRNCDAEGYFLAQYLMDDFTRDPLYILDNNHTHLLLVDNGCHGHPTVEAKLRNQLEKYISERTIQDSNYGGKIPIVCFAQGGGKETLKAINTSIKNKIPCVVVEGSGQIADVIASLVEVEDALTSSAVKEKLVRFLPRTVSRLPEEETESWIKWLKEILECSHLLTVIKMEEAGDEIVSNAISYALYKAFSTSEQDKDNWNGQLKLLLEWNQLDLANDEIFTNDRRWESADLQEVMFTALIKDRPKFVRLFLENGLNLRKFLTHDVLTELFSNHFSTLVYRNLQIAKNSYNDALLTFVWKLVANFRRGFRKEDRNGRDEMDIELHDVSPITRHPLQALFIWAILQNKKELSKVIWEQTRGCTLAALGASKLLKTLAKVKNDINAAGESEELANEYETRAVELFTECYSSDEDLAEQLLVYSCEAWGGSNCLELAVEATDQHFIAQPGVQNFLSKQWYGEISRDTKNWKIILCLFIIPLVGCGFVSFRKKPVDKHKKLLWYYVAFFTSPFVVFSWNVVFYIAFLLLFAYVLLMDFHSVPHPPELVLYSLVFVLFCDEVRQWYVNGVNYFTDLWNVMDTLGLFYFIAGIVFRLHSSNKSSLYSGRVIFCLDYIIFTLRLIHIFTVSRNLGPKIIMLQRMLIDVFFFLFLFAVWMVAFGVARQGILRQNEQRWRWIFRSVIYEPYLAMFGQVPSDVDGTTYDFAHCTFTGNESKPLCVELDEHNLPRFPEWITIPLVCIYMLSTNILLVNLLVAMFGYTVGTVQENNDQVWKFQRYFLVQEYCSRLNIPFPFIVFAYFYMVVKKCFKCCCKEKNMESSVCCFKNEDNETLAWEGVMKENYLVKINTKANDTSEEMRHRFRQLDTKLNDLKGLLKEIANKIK
T2 sequence (Q7Z2W7 whole entry): as above

In the case of `CC(C)[C@@H]1CC[C@@H](C)CC12OCC(CO)O2` (mixture of isomers) [Frescolat MGA], the EC50 [1] is given as 4.8 ± 1.1 µM.
In the case of `CC(C)[C@@H]1CC[C@@H](C)C[C@H]1OCC(O)CO` (mixture of isomers) [Cooling Agent 10], the EC50 [1] is given as 6 ± 2.2 µM.
In the case of `CC(C)[C@@H]1CC[C@@H](C)C[C@H]1O` (relative stereo) [Menthol], the “trigger frequency at basal temperature of 34° C. or during cooling ramps” value ([2]; 50 μM menthol perfusion, TRPM8(−/−) corneas, n=6) is reported as “no increase”, the “trigger frequency in basal temperature, cold threshold and peak frequency” value ([2]; menthol 50 μM, TRPM8(+/−) mice, significantly less than in TRPM8(+/+)) is reported as “enhanced” and the “percentage of terminals with a bursting firing pattern at 34° C.” value ([3]; during perfusion with menthol 50 μM, 5% before treatment) is reported as 44%. For the same compound, the “temperature of silencing during cooling ramps” value ([3]; menthol 50 μM, control 23.8±0.4) was 25.2±0.4 °C, the “temperature at which peak frequency is reached during cooling ramps” value ([3]; menthol 50 μM, control 26.7±0.5, n=44) was 28.6±0.5 °C and the spontaneous activity ([3]; menthol 50 μM, from 3.4±0.3 before, n=44) was 18.4±1.4 impulses/s. For the same compound, the “tested endings with increased spontaneous activity” value ([3]; menthol 50 μM, n=44) was 98%.
For `COc1ccc(NC(=O)[C@@H]2C[C@H](C)CC[C@H]2C(C)C)cc1` (stereo in doubt) [WS-12, 2-isopropyl-5-methyl-cyclohexanecarboxylic acid (4-methoxyphenyl)-amide], the EC50 [4] is listed as 0.193 µM, the EC50 ([5]; data from Beck et al., 2007) is listed as 0.039 µM and the EC50 ([5]; data from Bodding et al., 2007) is listed as 0.68 µM.
With `C=CCN=C=S` [AITC, allyl-isothiocyanate] the tear flow [6] was “significantly increased”, the “effect on spontaneous or cold-evoked activity” value ([3]; AITC 100 μM, 28 cold-sensitive nerve endings tested) was “failed to modify the spontaneous or cold-evoked activity in 24 of them” and the “nerve endings with significant increase in trigger frequency at basal temperature” value ([3]; AITC 100 μM, of 28 endings tested) was “four”.
For `CC(C)(C)c1ccc(NC(=O)N2CCN(c3ncccc3Cl)CC2)cc1` [BCTC, N-(4-tert-butyl-phenyl)-4-(3-chloropyridin-2-yl) tetrahydropyrazine-1(2H)-carboxamide], the IC50 [7, 11] is listed as 0.68 ± 0.06 µM, the “spontaneous activity and trigger frequency of cold- and menthol-evoked discharges” value ([3]; BCTC 10 μM perfusion during 90 min) is listed as “decreased gradually and almost silenced” and the “effects of BCTC on nerve ending activity in TRPA1(−/−) mice” value ([3]; BCTC 10 μM, TRPA1(−/−) mice) is listed as “also observed”. For the same compound, the “decline in activity upon removal of the drug” value ([3]; after BCTC 10 μM removal) was “reversed partially”, the IC50 [8, 12] was 0.54 ± 0.04 µM and the IC50 ([8]; read-out: IC50 menthol, 100 μM menthol, +80 mV, modified by Madrid 2006) was 0.34 ± 0.04 µM.
For `CCOC(=O)C(C)NC(=O)C1C[C@H](C)CC[C@H]1C(C)C` (some centres unmarked) [CPS-369], the EC50 [4] is listed as 3.6 µM.
For `C[C@@H]1CN(c2ncccc2Cl)CCN1C(=O)Nc1ccc(C(F)(F)F)cc1` [CTPC, (2R)-4-(3-chloro-2-pyridinyl)-2-methyl-N-[4-(trifluoromethyl)phenyl]-1-pyperazine-carboxamide], the IC50 [8, 13] is listed as 0.131 ± 0.014 µM.
In the case of `Oc1cc2c(cc1O)CN(C(=S)NCCc1ccc(Cl)cc1)CCC2` [Capsazepine, N-[2-(4-chlorophenyl)ethyl]-1,3,4,5-tetrahydro-7,8-dihydroxy-2H-2-benzazepine-2-carbothioamide], the IC50 ([7]; cold, Malkia et al. 2009, read-out: IC50 cold) is listed as 12 ± 2 µM.
In the case of `Clc1ccccc1C(c1ccccc1)(c1ccccc1)n1ccnc1` [Clotrimazole, 1-[(2-chlorophenyl)diphenylmethyl]-1H-imidazol], the IC50 ([8]; read-out: IC50 menthol, 100 μM menthol, +50 mV, Meseguer et al. 2008) is listed as 1.2 µM.
For `Nc1ccncc1` [Compound 4-AP, 4-aminopyridine], the “cold threshold of the endings” value ([3]; 4-AP 100 μM) was “no parallel changes”, the “mean peak frequency of cold responses depressed” value ([3]; 4-AP 100 μM, n=9) was 39±6 % of the control value and the “units with significantly increased spontaneous activity” value ([3]; 4-AP 100 μM, nine studied units) was “three out of nine”.
In the case of `CC12CCC(CC1)C(C)(C)O2` [Eucalyptol], the EC50 [1] is listed as 7700 ± 2000 µM and the EC50 ([5]; data from McKemy et al., 2002) is listed as 3400 ± 400 µM.
In the case of `CC(O)C(=O)O[C@@H]1C[C@H](C)CC[C@H]1C(C)C` (some centres unmarked) [Frescolat ML], the EC50 [1] is listed as 3.3 ± 1.5 µM.
In the case of `CC(CC=O)CCCC(C)(C)O` (centres unmarked) [Hydroxyl-citronellal], the EC50 [1] is given as 19600 ± 2200 µM.
In the case of `C=C[C@@](C)(O)CCC=C(C)C` [Linalool, Linallol], the EC50 [1] is listed as 6700 ± 2000 µM.
In the case of `CC(C)[C@@H]1CC[C@@H](C)C[C@H]1NC(=O)c1ccc(-c2ccccc2)cc1` [MAD1d, N-[(1R,2S,5R)-2-Isopropyl-5-methylcyclohexyl]biphenyl-4-carboxamide], the IC50 [9] is listed as 0.02 ± 0.0024 µM.
In the case of `CC1CCC(C(C)(C)O)C(O)C1` (centres unmarked) [PMD-38, p-menthane-3,8-diol], the EC50 [1] is given as 31 ± 1.1 µM.
For `c1cnc2c(c1)ccc1cccnc12` [Phenanthroline], the IC50 [7, 11] is given as 100 ± 20 µM and the IC50 [8, 12] is given as 180 ± 20 µM.
In the case of `CCN(CCNC(=O)Nc1ccccc1Br)c1cccc(C)c1` [SB-452533, N-(2-bhromophenyl)-N′-(2-[ethyl(3-methylphenyl)amino]ethyl)urea], the IC50 [8, 13] is given as 0.571 ± 0.077 µM.
For `COc1ccc(CCCOC(Cn2ccnc2)c2ccc(OC)cc2)cc1` (centres unmarked) [SKF96365], the IC50 [7, 11] is given as 1 ± 0.2 µM, the IC50 ([7]; read-out: IC50 menthol, 100 μM menthol, modified by Madrid 2006) is given as 3 ± 1 µM and the IC50 [8, 12] is given as 0.8 ± 0.1 µM.
For `CCNC(=O)C1CC(C)CCC1C(C)C` (centres unmarked) [WS-3, N-ethyl-p-menthane-3-carboxamide], the EC50 [1] is given as 3.7 ± 1.7 µM.
For `CC1CCC(C(C)C)C(C(=O)NC(C)(C)CO)C1` (centres unmarked) [WS-11, 2-isopropyl-5-methyl-cyclohexanecarboxylic acid (2-hydroxy-1,1-dimethyl-ethyl)-amide], the EC50 ([5]; data from Beck et al., 2007) is listed as 6.25 µM.
In the case of `CC1CCC(C(C)C)C(C(=O)NC(C)(C)C)C1` (centres unmarked) [WS-14, 2-isopropyl-5-methyl-cyclohexanecarboxylic acid tert-butylamide], the EC50 ([5]; data from Beck et al., 2007) is listed as 21.2 µM.
In the case of `CC1CCC(C(C)C)C(C(=O)OCC(O)CO)C1` (centres unmarked) [WS-30, 2-isopropyl-5-methyl-cyclohexanecarboxylic acid ester 2,3-dihydroxy-propyl], the EC50 [4] is given as 5.6 µM.
In the case of `CCCCCCCP(=O)(C(C)CC)C(C)CC` (centres unmarked) [WS-148, 1-(di-sec-butyl-phosphinoyl)-heptane], the EC50 [4] is listed as 4.1 µM.
With `COc1cc(CNC(=O)CCCC/C=C/C(C)C)ccc1O` [capsaicin] the “impulse discharge evoked in active units” value ([2]; capsaicin 100 nM, TRPM8(−/−) corneas, six units tested) was “evoked a few impulses in two endings (5 and 8 impulses, respectively) and a vigorous, discharge lasting more than 30 s in another”, the tear flow [6] was “significantly increased” and the “cold-sensitive endings that responded” value ([3]; 100 nM capsaicin, wild-type mice) was 65%.
For `CC(C)(C)c1ccc(NC(=S)N2CCN(c3ncccc3Cl)CC2)cc1` [thio-BCTC, N-(4-tert-butyl-phenyl)-4-(3-chloropyridin-2-yl) tetrahydropyrazine-1(2H)-(thio)carboxamide], the IC50 [10] is listed as 3.5 ± 1.1 µM.
